Data on 6 compounds can be found in article PMC9880178, “Cecropin D-derived synthetic peptides in the fight against Candida albicans cell filamentation and biofilm formation” (Frontiers in Microbiology, 2023).

Data set [1] deals with mitochondria of C. albicans biofilm cells. Nature of the data set: Mitochondrial activity, MitoTracker Orange / MitoTracker Green. It counts as cell-based, Candida albicans. Particulars: 50 μM ΔM3, 6.2 μM ΔM4 or 2.7 μM amphotericin B, 3 h, 24-h biofilm. As for the experimental part: The 24-h biofilms of C. albicans were incubated with 100 μl of ΔM3 (50 μM) or ΔM4 (6.2 μM) and amphotericin B (2.7 μM; positive control) solutions in RPMI 1640 medium for 3 h at 37°C. After that time, biofilms were washed with 200 μl of PBS and incubated for 30 min at 37°C with MitoTracker Green TM dye (Invitrogen) at final concentration of 500 nM, used to detect the change in total mitochondrial mass, and MitoTracker Orange (500 nM), used to detect the change in mitochondrial activity. Mitochondria were imaged in the FITC and TRIC channel, using the Olympus IX73 microscope.

The test system of the next data set is C. albicans cells. Nature of the data set: microbe, parasite or virus in culture. Conditions: for IC90: 24 h; for FICI: combination of peptide with caspofungin. As for the experimental part: To determine the viability of C. albicans, the 2,3-bis(2-methoxy-4-nitro-5-sulfo-phenyl)-2H-tetrazolium-5-carboxanilide (XTT) (ThermoFisher Scientific) reduction assay is used as a routine tool for quantitative measurement of fungal metabolic activity, growth and response to antifungal treatment ([van Dijck et al., 2018]). The tests were performed as described ([Kulig et al., 2022]) with some modifications. Briefly, 100 μl of RPMI 1640 medium without phenol red (Biowest) and 50 μl of XTT solution (1 mg/ml; Invitrogen, Waltham, MA, United States), freshly activated with phenazine methosulfate (5 μg/ml; Sigma-Aldrich) in the same medium, were added to C. albicans cells. After 40 min of incubation at 37°C in the dark, 100 μl of supernatants were transferred to the wells of a new 96-well microplate (Sarstedt, Nümbrecht, Germany). The absorbance of the formazan product was measured spectrophotometrically at 450 nm using a Synergy H1 microplate reader (BioTek Instruments, Winooski, VT, United States).
The following concentrations of peptides and antifungal drugs were used for the assay: ΔM3 0.4–50 μM, ΔM4 0.4–3.1 μM, amphotericin B 0.2–1.6 μM, fluconazole 0.2–1.6 μM and caspofungin 0.003–0.2 μM (the latter two from Sigma-Aldrich). The combinatory effects of each peptide and each conventional antimycotic drug were tested by the previously described checkerboard method ([Guo et al., 2008]; [Do Nascimento Dias et al., 2020]) with minor modification. C. albicans cells (3 × 10^2) were suspended in 100 μl of RPMI 1640 medium, containing peptide, drug, or their combination, in wells of Falcon® 96-well clear flat bottom TC-treated culture microplate (Corning). Fungal cells only in RPMI 1640 medium without peptides and drugs served as a control. Incubation was carried out for 24 h at 37°C in an atmosphere of 5% CO2 and 95% humidity without shaking. After this time, cell viability was measured using an XTT reduction assay. The analysis was performed in biological triplicate. For each combination, Fractional Inhibitory Concentration Index (FICI) was determined using the following formula: […]
Where FICa is the ratio of IC90 value for the compound a in combination to the IC90 value of the agent a alone; FICb is the ratio of IC90 value for compound b in combination to the IC90 value of the agent b alone.
The FICI ≤0.5 was interpreted as a synergistic effect, 0.5< FICI ≤1.0 as additive, 1.0< FICI ≤2.0 as indifferent and FICI >2.0 as antagonism.

Data set [2] has as its system cytosolic Ca2+ in C. albicans biofilm. The experiment in a line: Cytosolic Ca2+, Fura-2 Calcium Flux Assay. Conditions: 10 mM, positive control, 3 h, 24-h biofilm. In kind it is cell-based, Candida albicans. As for the experimental part:
Accumulation of cytosolic Ca^2+ was measured with the Fura-2 Calcium Flux Assay Kit (Abcam, Cambridge, Great Britain). The 24-h biofilms of C. albicans were incubated for 3 h with 100 μl of ΔM3 (25 μM and 50 μM) or ΔM4 (6.2 μM and 12.5 μM) and H2O2 (10 mM; positive control) solutions prepared in RPMI 1640. The concentration of peptides was chosen close to those for which the effect of apoptosis was obtained in experiments analyzing the activity of metacaspases. After incubation, biofilms were washed with Hanks Balanced Salt Solution (Biowest) with Pluronic® F127 Plus (Abcam). Then 100 μl of Fura-2 AM solution was added to the biofilms and incubated for 1 h at room temperature. The fluorescence was then measured using a Synergy H1 microplate reader with excitation at 340 nm and emission at 510 nm.
Background: A change in cytosolic calcium serves as a functional read-out for many receptors and channels.

In the next data set the test system is human erythrocytes. Conditions: cited from earlier work. An excerpt:
Promising antimicrobial properties were also previously reported for the cecropin D-like peptide (UniProtKB accession number: P85210) from the greater wax moth Galleria mellonella ([Cytrynska et al., 2007]). Modification of particular residues resulting in an increase of peptide charge and basic residues on the polar face of the molecule compared to a neutral wild-type peptide, enhanced the antibacterial activity of peptides derived from the cecropin D-like natural sequence. One such type of derivative was the synthetic cationic peptide ΔM2 with 39 amino acid residues and a charge of +9, which ...

[3] abbreviates: Candida albicans, read-out: IC90, compound acting alone.
The mark [4] stands for this setting: drug (compound a) in combination with ΔM3.
[5] abbreviates: drug (compound a) in combination with ΔM4.

Where two headings read alike, the source gives them in different places. Where no end group is shown, it is not given here.

As to `C[C@@H]1[C@H](O)[C@@H](C)/C=C/C=C/C=C/C=C/C=C/C=C/C=C/[C@H](O[C@@H]2O[C@H](C)[C@@H](O)[C@H](N)[C@@H]2O)C[C@@H]2O[C@](O)(C[C@@H](O)C[C@@H](O)[C@H](O)CC[C@@H](O)C[C@@H](O)CC(=O)O[C@H]1C)C[C@H](O)[C@H]2C(=O)O` [Amphotericin B, amphotericin B], the “mitochondrial activity (MitoTracker Orange fluorescence)” value in data set [1] is listed as “partial loss of mitochondrial activity”. Also, the IC90 in the data set on C. albicans cells (setting [3]) is 1.6 µM. Besides, the FICa in the data set on C. albicans cells (setting [4]) and with C. albicans cells (setting [5]) was 0.5 in each case.
For `CC[C@H](C)C[C@H](C)CCCCCCCCC(=O)N[C@H]1C[C@@H](O)[C@@H](NCCN)NC(=O)[C@@H]2[C@@H](O)CCN2C(=O)[C@H]([C@H](O)CCN)NC(=O)[C@H]([C@H](O)[C@@H](O)c2ccc(O)cc2)NC(=O)[C@@H]2C[C@@H](O)CN2C(=O)[C@H]([C@@H](C)O)NC1=O` [Caspofungin, caspofungin], the IC90 with C. albicans cells (setting [3]) turned out to be 0.1 µM. Further, the FICa was 0.03 in the data set with C. albicans cells (setting [4]) and 0.12 with C. albicans cells (setting [5]).
Turning to `OC(Cn1cncn1)(Cn1cncn1)c1ccc(F)cc1F` [Fluconazole, fluconazole], in the data set on C. albicans cells (setting [3]), the IC90 is 0.8 µM. The “IC90 in combination with each peptide compared to administered alone” value with C. albicans cells (combination with ΔM3 or ΔM4) was “four-fold lower”. The FICa with C. albicans cells (setting [4]) and in the data set with C. albicans cells (setting [5]) was 0.25 in each case.
As for `OO` [H2O2], the “increase in cytosolic Ca2+ concentration” value in data set [2] is given as “up to 50%”.
On to NFFKRIRRAGKRIRKAIISA [ΔM3], for which, in the data set on human erythrocytes, the hemolytic activity entry was “low”. Besides, the IC90 in the data set on C. albicans cells (cells) turned out to be 50 µM. Besides, the FICI in the data set with C. albicans cells is recorded as 0.062.
For NFFKRIRRAWKRIWKWIYSA [ΔM4], in the data set on C. albicans cells (cells), the IC90 was found to be 3.1 µM. In the data set on C. albicans cells, the FICI came to 0.370.

Broadly, the IC90 is the point of the concentration-response curve where the effect stands at 90%.
